Test results taken from the supplement of paper PMC10307832.

Columns and labels:
Assay in all cases: relative viability (nuclei count vs DMSO), 5 days (fraction); higher = more cells survive
[1] = compound: COc1nc(N)nc2c1ncn2[C@@H]1O[C@H](CO)[C@@H](O)[C@@H]1O [Nelarabine] + CC1(C)CCC(c2ccc(Cl)cc2)=C(CN2CCN(c3ccc(C(=O)NS(=O)(=O)c4ccc(N[C@H](CCN5CCOCC5)CSc5ccccc5)c(S(=O)(=O)C(F)(F)F)c4)cc3)CC2)C1 [Navitoclax] (partner 0.5 µM)
Outline: (§1)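 Lung cancer cell lines were seeded in 1536-well plates and dosed by pin tool the next day, with either a single drug or a fixed anchor-drug dose combined with five library-drug doses (not always all listed) spaced in √10 steps. Five days later, one step fixed the cells and stained their nuclei (final 0.05% Triton X-100, 1% formaldehyde, 1 ug/ml Hoechst), and nuclei were counted on 4× images. Relative viability is the nuclei count in treated wells divided by the count in vehicle wells, and each value is the median of duplicate plates.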

[2] = compound: COc1nc(N)nc2c1ncn2[C@@H]1O[C@H](CO)[C@@H](O)[C@@H]1O [Nelarabine] + CCNC(=O)c1noc(-c2cc(C(C)C)c(O)cc2O)c1-c1ccc(CN2CCOCC2)cc1 [Luminespib] (partner 0.01 µM)
Outline: as §1

[3] = compound: COc1nc(N)nc2c1ncn2[C@@H]1O[C@H](CO)[C@@H](O)[C@@H]1O [Nelarabine] + Cc1nc(Nc2ncc(C(=O)Nc3c(C)cccc3Cl)s2)cc(N2CCN(CCO)CC2)n1 [Dasatinib] (partner 0.075 µM)
Outline: as §1

[4] = compound: COc1nc(N)nc2c1ncn2[C@@H]1O[C@H](CO)[C@@H](O)[C@@H]1O [Nelarabine] + NC(=O)Nc1cc(-c2cccc(F)c2)sc1C(=O)N[C@H]1CCCNC1 [AZD7762] (partner 0.2 µM)
Outline: as §1

| Cell Line | relative viability ([1]; first compound 0.01 µM) | relative viability ([1]; first compound 0.03162 µM) | relative viability ([1]; first compound 0.1 µM) | relative viability ([1]; first compound 0.3162 µM) | relative viability ([1]; first compound 1 µM) | relative viability ([2]; first compound 0.01 µM) | relative viability ([2]; first compound 0.03162 µM) | relative viability ([2]; first compound 0.1 µM) | relative viability ([2]; first compound 0.3162 µM) | relative viability ([2]; first compound 1 µM) | relative viability ([3]; first compound 0.01 µM) | relative viability ([3]; first compound 0.03162 µM) | relative viability ([3]; first compound 0.1 µM) | relative viability ([3]; first compound 0.3162 µM) | relative viability ([3]; first compound 1 µM) | relative viability ([4]; first compound 0.01 µM) | relative viability ([4]; first compound 0.03162 µM) | relative viability ([4]; first compound 0.1 µM) | relative viability ([4]; first compound 0.3162 µM) | relative viability ([4]; first compound 1 µM) |
| --- | --- | --- | --- | --- | --- | --- | --- | --- | --- | --- | --- | --- | --- | --- | --- | --- | --- | --- | --- | --- |
| HOP-62 | 1.25 | 1 | 1.06 | 1.08 | 1.11 | 1.19 | 0.736 | 1 | 1.1 | 0.961 | 0.635 | 0.636 | 0.395 | 0.764 | 0.738 | 0.684 | 0.396 | 0.602 | 0.798 | 0.48 |
| NCI-H596 | 0.986 | 1.13 | 0.959 | 1.04 | 0.994 | 1.04 | 0.996 | 1.08 | 1.12 | 0.988 | 0.752 | 0.571 | 0.488 | 0.581 | 0.666 | 1.2 | 1.01 | 1.05 | 1.22 | 1.23 |
| NCI-H2126 | 0.869 | 0.748 | 0.786 | 0.816 | 0.743 | 1.04 | 0.951 | 0.822 | 0.892 | 0.977 | 0.701 | 0.55 | 0.43 | 0.692 | 0.639 | 1.02 | 1.07 | 1.05 | 1.04 | 0.997 |
| NCI-H2087 | 1.02 | 0.944 | 0.971 | 0.9 | 0.979 | 0.193 | 0.125 | 0.155 | 0.18 | 0.196 | 1.14 | 0.718 | 0.526 | 0.981 | 1.09 | 1.72 | 1.42 | 1.37 | 1.51 | 1.21 |
| NCI-H1355 | 1.1 | 0.818 | 0.923 | 1.01 | 0.991 | 0.763 | 0.618 | 0.667 | 0.629 | 0.713 | 0.849 | 0.573 | 0.564 | 0.744 | 0.706 | 0.935 | 0.608 | 0.657 | 0.804 | 0.822 |
| NCI-H2405 | 1 | 0.902 | 0.687 | 0.744 | 0.84 | 0.697 | 0.844 | 0.646 | 0.762 | 0.696 | 0.208 | 0.244 | 0.233 | 0.21 | 0.229 | 0.837 | 0.647 | 0.71 | 0.736 | 0.81 |
| NCI-H1975 | 1.27 | 0.948 | 1.26 | 1.39 | 1.14 | 0.237 | 0.244 | 0.169 | 0.198 | 0.464 | 0.431 | 0.343 | 0.316 | 0.434 | 0.462 | 0.964 | 0.799 | 0.778 | 0.701 | 0.766 |
| EPLC-272H | 1.33 | 1.35 | 1.43 | 0.954 | 1.08 | 0.137 | 0.483 | 0.446 | 0.259 | 0.301 | 0.323 | 0.361 | 0.129 | 0.401 | 0.29 | 0.196 | 0.209 | 0.305 | 0.247 | 0.297 |
| ChaGo-K-1 | 1.03 | 1.02 | 1.48 | 0.936 | 1.07 | 0.821 | 0.361 | 0.637 | 0.659 | 0.562 | 0.624 | 0.515 | 0.533 | 0.707 | 0.568 | 1 | 0.715 | 0.871 | 0.985 | 0.821 |
| NCI-H1651 | 1.48 | 1.1 | 1.1 | 1.04 | 1.08 | 1.01 | 0.953 | 0.822 | 0.985 | 0.856 | 0.4 | 0.372 | 0.387 | 0.355 | 0.368 | 0.495 | 0.53 | 0.452 | 0.518 | 0.422 |
| NCI-H1993 | 1.14 | 0.783 | 0.982 | 1.02 | 0.956 | 0.861 | 0.721 | 0.917 | 0.965 | 0.798 | 0.692 | 0.505 | 0.553 | 0.665 | 0.635 | 0.845 | 0.438 | 0.642 | 0.841 | 0.692 |
| HCC-827 | 1.02 | 0.886 | 0.91 | 0.797 | 0.705 | 0.889 | 0.68 | 0.644 | 0.511 | 0.385 | 0.431 | 0.241 | 0.166 | 0.295 | 0.361 | 0.203 | 0.208 | 0.158 | 0.175 | 0.163 |
| NCI-H1944 | 1.02 | 0.964 | 1.01 | 0.937 | 0.968 | 0.925 | 0.775 | 0.793 | 0.73 | 0.745 | 0.211 | 0.213 | 0.196 | 0.185 | 0.194 | 0.534 | 0.4 | 0.421 | 0.44 | 0.485 |
